US20130030012A1, “COMPOUNDS” (Glaxo Group Limited, priority 2011, published 2013)

Assays:
[1] = test system: experimental autoimmune encephalomyelitis (EAE) rats; assay: Rat experimental autoimmune encephalomyelitis (EAE) model, preventive treatment; format: in vivo
Procedure: A further study was carried out to study the impact of Lp-PLA2 inhibitors on modulating M1/M2 imbalance. In this study, rats were induced to develop experimental autoimmune encephalomyelitis (EAE) by immunization with myelin basic protein (MBP) antigen and treated with a known Lp-PLA2 inhibitor: 5-((9-Methoxy-4-oxo-6,7-dihydro-4H-pyrimido[6,1-a]isoquinolin-2-yl)oxy)-2-(3-(trifluoromethyl)phenoxy)benzonitrile (See PCT application no. PCT/CN2011/001597). In this preventive treatment model, the compound was administered at day 0 (day of immunization) and continued to administer until day 22. The study lasted for 25 days. Rats were subsequently monitored for symptoms of EAE. Rats were immunized with MBP to develop EAE and symptoms were monitored daily. Plasma Lp-PLA2 activity, OxLDL, and LysoPC concentration were determined at different time points through the course of EAE.

[2] = test system: proinflammatory (M1) and anti-inflammatory (M2) markers in splenic and CNS infiltrating macrophages; assay: Ex vivo analysis of M1 and M2 markers in macrophages of EAE rats by realtime PCR; parameters: species or system rat; details: spleen harvested day 13 post MBP-immunization
Procedure: Ex vivo analysis of proinflammatory (M1) and anti-inflammatory (M2) markers in control and compound treated EAE rats. Splenic macrophages were harvested at day 13 post MBP-immunization and assayed for expression of a variety of markers by realtime PCR. CNS infiltrating cells were harvested and macrophages were analyzed for expression of M1 and M2 markers by realtime PCR.

[3] = biological target: T1, recombinant human Lp-PLA2 (Homo sapiens, UniProt Q13093); assay: Recombinant human Lp-PLA2 assay (rhLp-PLA2, PED6 assay); format: biochemical; details: upper limit for pIC50 in this assay is 9.3; read-out: pIC50 values in the PED6 assay (converted)
T1 sequence (Q13093 22-441): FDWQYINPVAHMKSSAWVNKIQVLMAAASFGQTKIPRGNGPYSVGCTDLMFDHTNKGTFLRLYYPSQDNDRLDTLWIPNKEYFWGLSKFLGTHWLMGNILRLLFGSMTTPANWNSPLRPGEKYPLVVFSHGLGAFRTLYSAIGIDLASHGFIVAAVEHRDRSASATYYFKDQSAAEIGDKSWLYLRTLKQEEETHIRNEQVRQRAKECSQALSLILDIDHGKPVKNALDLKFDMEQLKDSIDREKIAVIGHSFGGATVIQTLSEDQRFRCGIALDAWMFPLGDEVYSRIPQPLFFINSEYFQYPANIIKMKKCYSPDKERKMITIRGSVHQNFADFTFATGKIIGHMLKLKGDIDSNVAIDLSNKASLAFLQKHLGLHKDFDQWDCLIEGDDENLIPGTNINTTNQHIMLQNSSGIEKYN
How it was run: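 Enzyme at 4 nM (or 110 pM) in 50 mM HEPES pH 7.4, 150 mM NaCl, 1 mM CHAPS, preincubated with compound 30 min. PED6 substrate ([…] 5 μM, as printed) then added and reaction run 20 min at room temperature, protected from light. Fluorescence read at ex 480/em 540; pIC50 from curve fitting.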

[4] = biological target: T2, Lp-PLA2 in human plasma (Homo sapiens, UniProt Q13093); assay: Lp-PLA2 human plasma assay (Thio-PAF assay); format: biochemical; details: pooled human plasma; read-out: pIC50 values in the thio-PAF assay (converted)
T2 construct: from tissue; host or cells: pooled human plasma
T2 sequence (Q13093 22-441): T1 sequence (Q13093 22-441)
How it was run: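 Pooled human plasma preincubated 30 min with compounds, then given substrate mix of 2.5 mM 2-thio-PAF, […] and 3.2 mM NEM (concentrations in substrate solution) in pH 7.4 HEPES/NaCl/CHAPS buffer. Quenched with TFA after 2 min; CPM-thiol fluorescence read at ex 380/em 485 to give pIC50.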

IC50 [3]	IC50 [4]	Structure (SMILES)	also measured
≤ 1 nM	≤ 100 nM	N#Cc1cc(COc2cc3n(c(=O)n2)CCCN3)ccc1Oc1ccc(Cl)c(C(F)(F)F)c1 [Example 107, 2-(4-chloro-3-(trifluoromethyl)phenoxy)-5-(((6-oxo-2,3,4,6-tetrahydro-1H-pyrimido[1,6-a]pyrimidin-8-yl)oxy)methyl)benzonitrile]	
≤ 10 nM	≤ 100 nM	O=c1nc(OCc2cc(F)c(F)c(F)c2)cc2n1CCCN2 [Example 113, 8-(3,4,5-trifluorobenzyloxy)-3,4-dihydro-1H-pyrimido[1,6-a]pyrimidin-6(2H)-one]	
≤ 1 nM	≤ 100 nM	O=c1nc(OCc2cc(F)c(Oc3ccc(F)cc3)c(F)c2)cc2n1CCCN2 [Example 114, 8-((3,5-difluoro-4-(4-fluorophenoxy)benzyl)oxy)-3,4-dihydro-1H-pyrimido[1,6-a]pyrimidin-6(2H)-one]	
≤ 1 nM	≤ 100 nM	O=c1nc(OCc2cc(F)c(Oc3cccc(F)c3)c(F)c2)cc2n1CCCN2 [Example 115, 8-((3,5-difluoro-4-(3-fluorophenoxy)benzyl)oxy)-3,4-dihydro-1H-pyrimido[1,6-a]pyrimidin-6(2H)-one]	
≤ 1 nM	≤ 100 nM	O=c1nc(OCc2ccc(Oc3cccc(F)c3)c(F)c2)cc2n1CCCN2 [Example 116, 8-((3-fluoro-4-(3-fluorophenoxy)benzyl)oxy)-3,4-dihydro-1H-pyrimido[1,6-a]pyrimidin-6(2H)-one]	
≤ 1 nM	≤ 100 nM	O=c1nc(OCc2ccc(Oc3ccc(F)c(F)c3)c(F)c2)cc2n1CCCN2 [Example 117, 8-((4-(3,4-difluorophenoxy)-3-fluorobenzyl)oxy)-3,4-dihydro-1H-pyrimido[1,6-a]pyrimidin-6(2H)-one]	
≤ 1 nM	≤ 100 nM	O=c1nc(OCc2ccc(Oc3ccc(F)cc3)c(F)c2)cc2n1CCCN2 [Example 118, 8-((3-fluoro-4-(4-fluorophenoxy)benzyl)oxy)-3,4-dihydro-1H-pyrimido[1,6-a]pyrimidin-6(2H)-one]	
≤ 1 nM	≤ 100 nM	O=c1nc(OCc2ccc(Oc3ccc(F)c(F)c3)cc2)cc2n1CCCN2 [Example 119, 8-((4-(3,4-difluorophenoxy)benzyl)oxy)-3,4-dihydro-1H-pyrimido[1,6-a]pyrimidin-6(2H)-one]	

More lines, now with the values behind:

Structure (SMILES)	IC50 [3]	IC50 [4]	also measured
COc1ccc2c(c1)CCn1c-2cc(Oc2ccc(Oc3cccc(C(F)(F)F)c3)c(C#N)c2)nc1=O [5-((9-Methoxy-4-oxo-6,7-dihydro-4H-pyrimido[6,1-a]isoquinolin-2-yl)oxy)-2-(3-(trifluoromethyl)phenoxy)benzonitrile]			LysoPC levels ([1]; rat EAE plasma): decreased; plasma Lp-PLA2 activity ([1]; rat EAE plasma): decreased Lp-PLA2 activity; clinical disease ([1]; rat EAE, MBP immunization, compound administered day 0 to day 22): reduction in clinical disease; M1 markers expression [2]: decrease in M1 markers; M2 markers expression [2]: increase in M2 markers
O=c1nc(OCc2ccc(Oc3ccc(Cl)c(C(F)(F)F)c3)c(F)c2)cc2n1CCCN2 [Example 97, 8-((4-(4-chloro-3-(trifluoromethyl)phenoxy)-3-fluorobenzyl)oxy)-3,4-dihydro-1H-pyrimido[1,6-a]pyrimidin-6(2H)-one]	≤ 1 nM	≤ 100 nM	
CN1CCCn2c1cc(OCc1ccc(Oc3cc(F)cc(C#N)c3)c(F)c1)nc2=O [Example 98, 3-fluoro-5-(2-fluoro-4-(((1-methyl-6-oxo-2,3,4,6-tetrahydro-1H-pyrimido[1,6-a]pyrimidin-8-yl)oxy)methyl)phenoxy)benzonitrile]	≤ 1 nM	≤ 100 nM	
O=c1nc(OCc2ccc(F)c(F)c2)cc2n1CCCN2 [Example 99, 8-((3,4-difluorobenzyl)oxy)-3,4-dihydro-1H-pyrimido[1,6-a]pyrimidin-6(2H)-one]	≤ 10 nM	≤ 100 nM	
O=c1nc(OCc2ccc(Oc3ccc(F)c(C(F)(F)F)c3)cc2)cc2n1CCCN2 [Example 100, 8-((4-(4-fluoro-3-(trifluoromethyl)phenoxy)benzyl)oxy)-3,4-dihydro-1H-pyrimido[1,6-a]pyrimidin-6(2H)-one]	≤ 1 nM	≤ 100 nM	
O=c1nc(OCc2ccc(Oc3cccc(C(F)(F)F)c3)c(F)c2)cc2n1CCCN2 [Example 101, 8-((3-fluoro-4-(3-(trifluoromethyl)phenoxy)benzyl)oxy)-3,4-dihydro-1H-pyrimido[1,6-a]pyrimidin-6(2H)-one]	≤ 1 nM	≤ 100 nM	
CN1CCCn2c1cc(OCCc1ccc(Oc3ccc(Cl)c(F)c3)c(F)c1)nc2=O [Example 102, 8-(4-(4-chloro-3-fluorophenoxy)-3-fluorophenethoxy)-1-methyl-3,4-dihydro-1H-pyrimido[1,6-a]pyrimidin-6(2H)-one]	≤ 1 nM	≤ 1000 nM	
CN1CCCn2c1cc(OCCc1ccc(Oc3ccc(Cl)c(F)c3)cc1)nc2=O [Example 103, 8-(4-(4-chloro-3-fluorophenoxy)phenethoxy)-1-methyl-3,4-dihydro-1H-pyrimido[1,6-a]pyrimidin-6(2H)-one]	≤ 10 nM	≤ 1000 nM	
N#Cc1ccc(Oc2ccc(COc3cc4n(c(=O)n3)CCCN4)cc2C#N)cc1F [Example 104, 4-(2-cyano-4-(((6-oxo-2,3,4,6-tetrahydro-1H-pyrimido[1,6-a]pyrimidin-8-yl)oxy)methyl)phenoxy)-2-fluorobenzonitrile]	≤ 1 nM	≤ 100 nM	
CN1CCCn2c1cc(OCCc1ccc(Oc3cccc(C(F)(F)F)c3)c(F)c1)nc2=O [Example 105, 8-(3-fluoro-4-(3-(trifluoromethyl)phenoxy)phenethoxy)-1-methyl-3,4-dihydro-1H-pyrimido[1,6-a]pyrimidin-6(2H)-one]	≤ 1 nM	≤ 100 nM	
N#Cc1ccc(Oc2ccc(COc3cc4n(c(=O)n3)CCCN4)cc2C#N)cc1Cl [Example 106, 2-chloro-4-(2-cyano-4-(((6-oxo-2,3,4,6-tetrahydro-1H-pyrimido[1,6-a]pyrimidin-8-yl)oxy)methyl)phenoxy)benzonitrile]	≤ 10 nM	≤ 100 nM	
